Measurements: US11713335B2, “Aminocoumarin compounds and methods of their use” (President and Fellows of Harvard College, priority 2018, dated 2023)
Values after ≈ are worked out from the molar mass of the structure shown. Read-outs that look alike come from different tables or passages of the source.

Tests used:
Assay type in all cases: cell-based
[1] = tested on: S. aureus RN4220; assay: Minimal inhibitory concentration, S. aureus RN4220; details: Staphylococcus aureus, RN4220, 16 h, 16 hour minimal inhibitory concentration at 37° C.; read-out: MIC (μM) S. aureus RN4220
Protocol: (§1) General Procedure for Determination of Minimal Inhibitory Concentrations
(§2) Overnight cultures (5 mL) of bacterial strains were grown in LB media or TSA media (for S. aureus) at 37° C. and with shaking at 220 rpm until saturation. The overnight culture was diluted serially 1:100 (50 μL in 5 mL sterile media) and then 1:100 (250 μL in 25 mL sterile media). The 25 mL of diluted culture was then dispensed to a sterile 96 well plate (Corning #3370). 198 μL of culture were dispensed into row A and 100 μL of this culture were dispensed into rows B-H. Aminocoumarin compound (DMSO stock) were added to the first row and then the row was mixed by pipetting. 100 μL of culture from row A were transferred to row B and the serial dilution continued until the final 100 μL from row H were discarded. The plate was incubated without shaking in a 37° C. for 16 hours and then read by visible light spectrophotometer (Molecular Devices) at 600 nm. The minimal inhibitory concentration (MIC) was determined as the lowest concentration of compound concentration that inhibited the growth of bacteria.
(§3) The compounds of the invention were assessed for activities against the pathogens S. aureus RN4220 and MW2, E. cloacae 13047, A. baumannii 19606, K. pneumoniae 700721, E. coli MC4100, 25922. All activities are reported in micromolar (uM) and are 16 hour minimal inhibitory concentrations at 37° C. The assay is detailed in Example 11 and is titled “General Procedure for Determination of Minimal Inhibitory Concentrations.”

[2] = tested on: S. aureus MW2; assay: Minimal inhibitory concentration, S. aureus MW2; details: Staphylococcus aureus, MRSA, 16 h, read-out: MIC (μM) S. aureus MW2 (MRSA)
Protocol: as §1, §2, §3

[3] = tested on: E. cloacae 13047; assay: Minimal inhibitory concentration, E. cloacae 13047; details: Enterobacter cloacae, 13047; 16 hour minimal inhibitory concentration at 37° C.; read-out: MIC (μM) E. cloacae 13047
Protocol: as §1, §2, §3

[4] = tested on: A. baumannii 19606; assay: Minimal inhibitory concentration, A. baumannii 19606; details: 16 hour minimal inhibitory concentration at 37° C., read-out: MIC (μM) A. baumannii 19606
Protocol: as §1, §2, §3

[5] = tested on: K. pneumoniae 700721; assay: Minimal inhibitory concentration, K. pneumoniae 700721; details: Klebsiella pneumoniae, 700721; 16 hour minimal inhibitory concentration at 37° C.; read-out: MIC (μM) K. pneumoniae 700721
Protocol: as §1, §2, §3

[6] = tested on: E. coli MC4100; assay: Minimal inhibitory concentration, E. coli MC4100; details: Escherichia coli, 16 hour minimal inhibitory concentration at 37° C., read-out: MIC (μM) E. coli MC4100 ara+
Protocol: as §1, §2, §3

[7] = tested on: E. coli 25922; assay: Minimal inhibitory concentration, E. coli 25922; details: 16 hour minimal inhibitory concentration at 37° C., read-out: MIC (μM) E. coli 25922
Protocol: as §1, §2, §3

[8] = 16 hour minimal inhibitory concentration at 37° C.
[9] = Acinetobacter baumannii, 19606, 16 h

SMILES	MIC [1]	MIC [2]	MIC [3]	MIC ([4]; Acinetobacter baumannii, 19606)	MIC [5]	MIC ([6]; MC4100)	MIC ([7]; Escherichia coli, 25922)	MIC [2, 8]	MIC [4, 9]	MIC ([6]; MC4100, 16 h)	MIC ([7]; Escherichia coli, 25922, 16 h)
CO[C@@H]1[C@@H](OC(N)=O)[C@@H](O)[C@H](Oc2ccc3c(OCCO)c(NC(=O)c4ccc(O)c(CC=C(C)C)c4)c(=O)oc3c2C)OC1(C)C [Compound 215]	38 µM (≈ 25 µg/mL)	19 µM (≈ 12.5 µg/mL)	> 100 µM	> 50 µM	> 100 µM	> 200 µM	> 200 µM	–	–	–	–
CO[C@@H]1[C@@H](OC(N)=O)[C@@H](O)[C@H](Oc2ccc3c(OCCCO)c(NC(=O)c4ccc(O)c(CC=C(C)C)c4)c(=O)oc3c2C)OC1(C)C [Compound 216]	19 µM (≈ 12.7 µg/mL)	–	> 100 µM	–	> 100 µM	–	–	19 µM (≈ 12.7 µg/mL)	> 50 µM	> 200 µM	> 200 µM
CO[C@@H]1[C@@H](OC(N)=O)[C@@H](O)[C@H](Oc2ccc3c(OCC4CO4)c(NC(=O)c4ccc(O)c(CC=C(C)C)c4)c(=O)oc3c2C)OC1(C)C (some centres unmarked) [Compound 217]	19 µM (≈ 12.7 µg/mL)	–	> 100 µM	–	> 100 µM	–	–	9 µM (≈ 6.02 µg/mL)	> 50 µM	> 200 µM	> 200 µM
CO[C@@H]1[C@@H](OC(N)=O)[C@@H](O)[C@H](Oc2ccc3c(O)c(NC(=O)c4cccc(Nc5ccccc5)c4)c(=O)oc3c2C)OC1(C)C [Compound 218]	10 µM (≈ 6.2 µg/mL)	–	> 100 µM	–	> 100 µM	–	–	10 µM (≈ 6.2 µg/mL)	> 50 µM	80 µM (≈ 49.6 µg/mL)	161 µM (≈ 99.8 µg/mL)
CO[C@@H]1[C@@H](OC(N)=O)[C@@H](O)[C@H](Oc2ccc3c(O)c(NC(=O)c4cccc(-c5ccc(F)c(F)c5)c4)c(=O)oc3c2C)OC1(C)C [Compound 219]	5 µM (≈ 3.2 µg/mL)	–	> 100 µM	–	78 µM (≈ 50 µg/mL)	–	–	5 µM (≈ 3.2 µg/mL)	> 50 µM	39 µM (≈ 25 µg/mL)	20 µM (≈ 12.8 µg/mL)
CO[C@@H]1[C@@H](OC(N)=O)[C@@H](O)[C@H](Oc2ccc3c(O)c(NC(=O)c4cccc(Oc5ccccc5C)c4)c(=O)oc3c2C)OC1(C)C [Compound 220]	10 µM (≈ 6.35 µg/mL)	–	> 100 µM	–	> 100 µM	–	–	10 µM (≈ 6.35 µg/mL)	> 50 µM	158 µM (≈ 100 µg/mL)	160 µM (≈ 102 µg/mL)
CO[C@@H]1[C@@H](OC(N)=O)[C@@H](O)[C@H](Oc2ccc3c(O)c(NC(=O)c4cccc(Oc5ccc(C)cc5)c4)c(=O)oc3c2C)OC1(C)C [Compound 221]	10 µM (≈ 6.35 µg/mL)	–	> 100 µM	–	> 100 µM	–	–	10 µM (≈ 6.35 µg/mL)	> 50 µM	10 µM (≈ 6.35 µg/mL)	5 µM (≈ 3.17 µg/mL)
CO[C@@H]1[C@@H](OC(N)=O)[C@@H](O)[C@H](Oc2ccc3c(O)c(NC(=O)c4cccc(-c5ccc(Cl)c(Cl)c5)c4)c(=O)oc3c2C)OC1(C)C [Compound 222]	0.46 µM (≈ 0.31 µg/mL)	–	> 100 µM	–	> 100 µM	–	–	0.23 µM (≈ 0.155 µg/mL)	9 µM (≈ 6.06 µg/mL)	37 µM (≈ 24.9 µg/mL)	37 µM (≈ 24.9 µg/mL)
CCCOCCOCC#Cc1ccc(C(=O)Nc2c(O)c3ccc(O[C@@H]4OC(C)(C)[C@H](OC)[C@@H](OC(N)=O)[C@H]4O)c(C)c3oc2=O)cc1 [Compound 226]	> 100 µM	–	> 100 µM	–	> 100 µM	–	–	> 100 µM	> 50 µM	> 200 µM	> 200 µM
CO[C@@H]1[C@@H](OC(N)=O)[C@@H](O)[C@H](Oc2ccc3c(O)c(NC(=O)c4ccc(I)c(-c5ccccc5)c4)c(=O)oc3c2C)OC1(C)C [Compound 227]	4 µM (≈ 2.92 µg/mL)	–	> 100 µM	–	34 µM (≈ 24.8 µg/mL)	–	–	4 µM (≈ 2.92 µg/mL)	> 50 µM	9 µM (≈ 6.57 µg/mL)	34 µM (≈ 24.8 µg/mL)
Cc1c(O)ccc2c(O)c(NC(=O)c3ccc(I)c(-c4ccccc4)c3)c(=O)oc12 [Compound 228]	97 µM (≈ 49.8 µg/mL)	–	> 100 µM	–	> 100 µM	–	–	97 µM (≈ 49.8 µg/mL)	> 50 µM	> 200 µM	> 200 µM
C#Cc1cccc(C(=O)Nc2c(O)c3ccc(O[C@@H]4OC(C)(C)[C@H](OC)[C@@H](OC(N)=O)[C@H]4O)c(C)c3oc2=O)c1 [Compound 229]	90 µM (≈ 49.7 µg/mL)	–	> 100 µM	–	> 100 µM	–	–	90 µM (≈ 49.7 µg/mL)	> 50 µM	> 200 µM	> 200 µM
C#CCOc1cccc(C(=O)Nc2c(O)c3ccc(O[C@@H]4OC(C)(C)[C@H](OC)[C@@H](OC(N)=O)[C@H]4O)c(C)c3oc2=O)c1 [Compound 230]	86 µM (≈ 50.1 µg/mL)	–	> 100 µM	–	> 100 µM	–	–	86 µM (≈ 50.1 µg/mL)	> 50 µM	86 µM (≈ 50.1 µg/mL)	172 µM (≈ 100 µg/mL)
CO[C@@H]1[C@@H](OC(N)=O)[C@@H](O)[C@H](Oc2ccc3c(O)c(NC(=O)c4ccccc4Br)c(=O)oc3c2C)OC1(C)C [Compound 231]	> 100 µM	–	> 100 µM	–	> 100 µM	–	–	> 100 µM	> 50 µM	> 200 µM	> 200 µM
CO[C@@H]1[C@@H](OC(N)=O)[C@@H](O)[C@H](Oc2ccc3c(O)c(NC(=O)c4cccc(Br)c4)c(=O)oc3c2C)OC1(C)C [Compound 232]	82 µM (≈ 49.8 µg/mL)	–	> 100 µM	–	> 100 µM	–	–	82 µM (≈ 49.8 µg/mL)	> 50 µM	> 200 µM	> 200 µM
CO[C@@H]1[C@@H](OC(N)=O)[C@@H](O)[C@H](Oc2ccc3c(O)c(NC(=O)c4ccc(C(=O)c5ccccc5)cc4)c(=O)oc3c2C)OC1(C)C [Compound 233]	40 µM (≈ 25.3 µg/mL)	–	> 100 µM	–	> 100 µM	–	–	40 µM (≈ 25.3 µg/mL)	> 50 µM	> 200 µM	> 200 µM
CO[C@@H]1[C@@H](OC(N)=O)[C@@H](O)[C@H](Oc2ccc3c(O)c(NC(=O)c4cccc(-c5cccc(Br)c5)c4)c(=O)oc3c2C)OC1(C)C [Compound 234]	0.73 µM (≈ 0.499 µg/mL)	–	> 100 µM	–	> 100 µM	–	–	0.46 µM (≈ 0.314 µg/mL)	18 µM (≈ 12.3 µg/mL)	18 µM (≈ 12.3 µg/mL)	18 µM (≈ 12.3 µg/mL)
CO[C@@H]1[C@@H](OC(N)=O)[C@@H](O)[C@H](Oc2ccc3c(O)c(NC(=O)c4cccc(-c5ccccc5Br)c4)c(=O)oc3c2C)OC1(C)C [Compound 235]	9 µM (≈ 6.15 µg/mL)	–	> 100 µM	–	> 100 µM	–	–	5 µM (≈ 3.42 µg/mL)	> 50 µM	18 µM (≈ 12.3 µg/mL)	18 µM (≈ 12.3 µg/mL)
CO[C@@H]1[C@@H](OC(N)=O)[C@@H](O)[C@H](Oc2ccc3c(O)c(NC(=O)c4ccnc(Oc5ccccc5)c4)c(=O)oc3c2C)OC1(C)C [Compound 237]	> 100 µM	–	> 100 µM	–	> 100 µM	–	–	> 100 µM	> 50 µM	> 100 µM	> 200 µM
CO[C@@H]1[C@@H](OC(N)=O)[C@@H](O)[C@H](Oc2ccc3c(O)c(NC(=O)c4cccc(Oc5ccc(Cl)cc5)n4)c(=O)oc3c2C)OC1(C)C [Compound 238]	10 µM (≈ 6.56 µg/mL)	–	> 100 µM	–	> 100 µM	–	–	10 µM (≈ 6.56 µg/mL)	> 50 µM	152 µM (≈ 99.7 µg/mL)	> 200 µM
CO[C@@H]1[C@@H](OC(N)=O)[C@@H](O)[C@H](Oc2ccc3c(O)c(NC(=O)c4cc(Oc5ccccc5)ccn4)c(=O)oc3c2C)OC1(C)C [Compound 239]	20 µM (≈ 12.4 µg/mL)	–	> 100 µM	–	> 100 µM	–	–	20 µM (≈ 12.4 µg/mL)	> 50 µM	> 200 µM	> 200 µM
COc1cccc(Oc2cccc(C(=O)Nc3c(O)c4ccc(O[C@@H]5OC(C)(C)[C@H](OC)[C@@H](OC(N)=O)[C@H]5O)c(C)c4oc3=O)c2)c1 [Compound 240]	19.2 µM (≈ 12.5 µg/mL)	–	> 100 µM	–	> 100 µM	–	–	19.2 µM (≈ 12.5 µg/mL)	> 50 µM	4.5 µM (≈ 2.93 µg/mL)	38 µM (≈ 24.7 µg/mL)
CO[C@@H]1[C@@H](OC(N)=O)[C@@H](O)[C@H](Oc2ccc3c(O)c(NC(=O)c4cccc(Oc5cccc(C(F)(F)F)c5)c4)c(=O)oc3c2C)OC1(C)C [Compound 241]	9.08 µM (≈ 6.25 µg/mL)	–	> 100 µM	–	> 100 µM	–	–	9.08 µM (≈ 6.25 µg/mL)	> 50 µM	155 µM (≈ 107 µg/mL)	145 µM (≈ 99.8 µg/mL)
